Test results taken from paper PMC5228037, “Discovery and Mechanistic Characterization of Selective Inhibitors of H2S-producing Enzyme: 3-Mercaptopyruvate Sulfurtransferase (3MST) Targeting Active-site Cysteine Persulfide” (Scientific Reports, 2017).

Target: T1, 3MST-overexpressing COS7 cells (Mus musculus, UniProt Q99J99)
T1 construct: expressed in transfected cells; host or cells: COS7 (transient)
T1 sequence (Q99J99 1-297): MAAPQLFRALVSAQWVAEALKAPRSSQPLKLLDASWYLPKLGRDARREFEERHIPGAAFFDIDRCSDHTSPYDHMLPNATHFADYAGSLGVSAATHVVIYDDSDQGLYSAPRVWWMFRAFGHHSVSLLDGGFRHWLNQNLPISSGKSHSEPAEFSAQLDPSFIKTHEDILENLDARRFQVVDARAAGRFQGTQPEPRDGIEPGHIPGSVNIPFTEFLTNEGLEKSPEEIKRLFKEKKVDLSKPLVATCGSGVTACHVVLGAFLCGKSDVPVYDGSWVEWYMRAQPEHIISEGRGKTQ
Test: Live-cell fluorescence imaging with SSP4 in 3MST-overexpressing COS7 cells
Assay type: cell-based
Procedure: Figure 2 Selectivity assessment of hit compounds for 3MST over other H2S/polysulfides-producing enzymes and rhodanese. (a) 3MST-Inhibitory activity of hit compounds at 10 and 100 μM in cell lysate of 3MST-expressing HEK293 cells. 100 μM 3MP and 100 μM DTT were added to the solution containing 0.1% DMSO as a cosolvent, and the mixture was incubated at 37 °C for 15 min. H2S production was measured by gas chromatography. All data are presented as the mean ± S.D. (100 μM: n = 3 or 4; 10 μM: n = 3). (b) Selectivity assessment of hit compounds at 100 μM towards CBS and CSE. Only DMSO was added to the control sample instead of DMSO solution containing hit compounds. H2S production was monitored by gas chromatography. All data are presented as the mean (n = 3). (c) Detection method for rhodanese activity (Sörbo method). (d) Selectivity assessment of hit compounds towards rhodanese. The results are mean ± S.D. (n = 4, three times). These values were determined based upon the absorbance of [Fe(SCN)3] at 460 nm (Sӧrbo method). […] (e) Fluorescence confocal microscopic images of live COS7 cells transfected with 3MST or an empty vector[9] as a control. […] F/F0 was calculated by dividing the fluorescence intensity of cells after addition of 500 μM 3MP (10 min) by that of cells before addition of 500 μM 3MP (Pre), then the mean F/F0 was determined from 5 cells. […]

SMILES: Cc1cc(=O)[nH]c(SCC(=O)c2cccc3ccccc23)n1 [compound 3]
- 3MST activity in living cells (SSP4 sulfane sulfur fluorescence after 500 μM 3MP) (1 μM compound, 3MST-overexpressing COS7 cells): almost completely suppressed
- Cell-membrane permeability (concluded from suppression of 3MST activity in live COS7 cells): cell-membrane permeable
